These compounds were tested against T1, Pri1 (full-length, 1 to 420) (Homo sapiens, UniProt P49642) (assay: fluorescence polarization competition against 6FAM-ATP). Conditions: read-out: K1/2.
T1 construct: gene PRIM1; full-length catalytic subunit alone (1-420), His6 tag cleaved by TEV protease, E. coli Rosetta2 (DE3), pRSFDuet-1
T1 sequence (P49642 1-420): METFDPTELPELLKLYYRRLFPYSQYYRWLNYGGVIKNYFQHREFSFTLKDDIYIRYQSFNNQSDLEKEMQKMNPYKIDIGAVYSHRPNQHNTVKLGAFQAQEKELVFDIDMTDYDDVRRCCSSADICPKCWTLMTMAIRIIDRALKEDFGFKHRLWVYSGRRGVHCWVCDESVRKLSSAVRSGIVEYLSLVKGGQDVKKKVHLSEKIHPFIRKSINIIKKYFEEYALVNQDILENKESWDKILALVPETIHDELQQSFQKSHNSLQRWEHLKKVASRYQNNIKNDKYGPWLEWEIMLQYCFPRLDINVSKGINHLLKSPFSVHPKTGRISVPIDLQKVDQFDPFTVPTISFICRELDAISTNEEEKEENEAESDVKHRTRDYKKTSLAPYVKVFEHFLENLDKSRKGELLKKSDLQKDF
Type: binding

Q: For `Nc1nc(F)nc2c1ncn2[C@@H]1O[C@H](COP(=O)(O)OP(=O)(O)OP(=O)(O)O)[C@@H](O)[C@H]1O` [2F-ATP], which IC50 is on record?
A: 7200 nM

Q: With `Nc1ncnc2c1ncn2[C@H]1C[C@H](O)[C@@H](COP(=O)(O)OP(=O)(O)OP(=O)(O)O)O1` [dATP] as the compound, how does the IC50 read?
A: 3300 nM

Q: `Nc1ncnc2c1ncn2[C@@H]1O[C@H](COP(=O)(O)OP(=O)(O)OP(=O)(O)O)[C@@H](O)[C@@H]1O` [vidarabine-TP] was tested. Which IC50 did it give?
A: 1500 nM

Q: How did the IC50 turn out when `Nc1ncnc2c1ncn2[C@@H]1O[C@H](COP(=O)(O)OP(=O)(O)OP(=O)(O)O)[C@@H](O)[C@H]1O` [ATP] was run?
A: 7500 nM

Q: With `Nc1nc(F)nc2c1ncn2[C@@H]1O[C@H](COP(=O)(O)OP(=O)(O)OP(=O)(O)O)[C@@H](O)[C@@H]1O` [fludarabine-TP] as the compound, how does the IC50 read?
A: 1100 nM

Each compound was assayed against T1, Pri1 (full-length, 1 to 420) (assay: fluorescence anisotropy direct titration). Conditions: not given.
Type: binding

Q: Which Kd does the source give for `O=C(NCCCCCCNc1ncnc2c1ncn2[C@@H]1O[C@H](COP(=O)(O)OP(=O)(O)OP(=O)(O)O)[C@@H](O)[C@H]1O)c1ccc2c(c1)C1(OC2=O)c2ccc(O)cc2Oc2cc(O)ccc21` [6FAM-ATP] here?
A: 410 nM

— article PMC6757278, “Structural Basis for Inhibition of Human Primase by Arabinofuranosyl Nucleoside Analogues Fludarabine and Vidarabine” (ACS Chemical Biology, 2019)
